“And” between values parts separate entries of the source, which are not always exact repeats. Equal values may be shown once.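 In this assay, cells in 96-well plates receive the compound at five concentrations for 48 hours. Endpoints are linearly interpolated between the surrounding concentrations. At the GI50, growth is halved. TGI is the concentration that stops growth completely.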
Experiments:
Experiment in all cases: NCI tumour cell line growth inhibition, 48 h
DMS 114 small cell lung = test system: DMS 114 small cell lung
DLD-1 colon = test system: DLD-1 colon
KM20L2 colon = test system: KM20L2 colon
SNB-78 CNS = test system: SNB-78 CNS
XF 498 CNS = test system: XF 498 CNS
RXF-631 renal = test system: RXF-631 renal
HOP-18 NSCLC = test system: HOP-18 NSCLC
DMS 273 small cell lung = test system: DMS 273 small cell lung
MDA-N = test system: MDA-N
SN12K1 renal = test system: SN12K1 renal
P388 leukemia = test system: P388 leukemia

Row | SMILES | TGI (DMS 114 small cell lung) [µM] | TGI (DLD-1 colon) [µM] | TGI (KM20L2 colon) [µM] | TGI (SNB-78 CNS) [µM] | TGI (XF 498 CNS) [µM] | TGI (RXF-631 renal) [µM] | TGI (HOP-18 NSCLC) [µM] | TGI (DMS 273 small cell lung) [µM] | TGI (MDA-N) | further results
1 | CC1=C(C(=O)Nc2cc(F)c(F)cc2F)C(c2ccc([N+](=O)[O-])cc2)C(C(=O)Nc2cc(F)c(F)cc2F)=C(C)N1 | > 100 | > 100 | > 100 | > 100 |  |  |  |  |  | 
2 | CCOc1ccc(NC(=O)CC2C(=O)Nc3ccccc3S2(=O)=O)cc1 (centres undefined) | > 100 | > 100 | > 100 | > 100 | > 100 | > 100 | > 100 |  |  | 
3 | O=C(NNc1ccccc1)/C(=C/c1ccc2c(c1)OCO2)NC(=O)c1ccccc1 |  | > 100 | > 100 | > 100 | > 100 |  | > 100 | > 100 |  | 
4 | CC(=O)C1=C(O)C2C3c4c[nH]c5cccc(c45)CC3C(C)(C)N2C1=O (centres undefined) | > 100 | > 100 | > 100 | > 100 | > 100 |  | 75.8 | > 100 |  | 
5 | CSC1NC(c2ccc(Cl)cc2)=C(C#N)C(=O)N1C1OCC(OC(C)=O)C(OC(C)=O)C1OC(C)=O (centres undefined) |  |  |  |  |  |  |  |  | > 100 µM | 
6 | CCc1nc(N)nc(N)c1-c1ccc(N2CCNCC2)cc1 |  |  |  |  |  |  |  |  | > 100 µM | 
7 | CC(=O)NNc1nc(C)c(C(=O)NNC(=O)C(=O)Nc2ccc(Cl)cc2Cl)s1 | > 100 | > 100 | > 100 | > 100 | > 100 |  |  |  |  | 
8 | COc1cccc(-c2cc(=O)c3ccccc3[nH]2)c1 | > 59.3 | > 100 | 27.1 |  | 72.3 |  | > 100 | > 100 |  | 
9 | COc1ccc(/C=C/C(=O)c2sc(-n3nc(-c4ccccc4)cc3-c3ccccc3)nc2C)cc1 | > 100 | > 100 | > 100 |  | > 100 | > 100 | > 100 |  |  | GI50 (DLD-1 colon): > 100 µM; GI50 (RXF-631 renal): > 100 µM; GI50 (HOP-18 NSCLC): > 100 µM
10 | CC(C)(C)C(C#N)(C#N)c1ccc(C(C#N)(C#N)C(C)(C)C)nn1 | > 100 | > 100 | > 100 | > 100 | > 100 | > 100 |  | > 100 |  | 
11 | CN1c2ccccc2N(C(=O)c2ccccc2)C(CC(=O)O)c2cccn21 (centres undefined) | > 100 |  | > 100 |  | > 100 | > 100 | > 100 | > 100 |  | 
12 | C[C@]12CCC3[C@@H](CC[C@@H]4c5nonc5CC[C@]34C)C1CC[C@@H]2O (some centres undefined) | 71.2 | 69.4 | > 100 | > 100 | 53.7 | > 100 | > 100 | 60.8 |  | 
13 | CCCCCCCCCCCCCC[C@@H](O)[C@H]1CC[C@H]([C@H]2CC[C@H]([C@H](O)CCCCCC[C@@H](O)CC3=C[C@H](C)OC3=O)O2)O1 |  |  |  |  |  |  |  |  | 6.48 µM and > 25 µM | GI50 (MDA-N): > 25 µM
14 | c1ccc2c(c1)cc1n2CC2CN=NC12 (centres undefined) |  | > 100 | > 100 | > 100 |  | > 100 |  | > 100 |  | 
15 | CN(c1ccccc1)c1c(Cl)c(=O)oc2c1ccc1occc12 | > 100 | > 100 | > 100 | > 100 |  | > 100 | > 100 | > 100 |  | 
16 | C=CCc1cc(OC)c2c(c1)C(OC)CC(c1ccc(OC)c(OC)c1)O2 (centres undefined) | > 100 | > 100 | > 100 | > 100 | > 100 | > 100 |  | > 100 |  | 
17 | CC1=C(C(=O)Nc2ccc(Cl)c(C(=O)OC(C)C)c2)SCCO1 |  | > 79.4 | 73.9 | > 100 | > 91.3 |  | > 100 | 73.1 |  | TGI (SN12K1 renal): 63.1 µM; TGI (P388 leukemia): 54.2 µM
18 | CSc1ccc2c(c1)C(N1CCN(C)CC1)Cc1ccccc1S2 (centres undefined) |  |  |  |  |  |  |  |  | 12.1 µM | 
19 | CCOC(=O)COc1ccc2c(C)cc(=O)oc2c1 |  |  |  |  |  |  |  |  | > 100 µM | 
20 | CC1(C)C(=O)C(C)(C)C1=S | > 100 | > 100 | > 100 |  | > 100 |  |  | > 100 |  | 

Row | SMILES | TGI (DMS 114 small cell lung) [µM] | TGI (DLD-1 colon) [µM] | TGI (KM20L2 colon) [µM] | TGI (SNB-78 CNS) [µM] | TGI (XF 498 CNS) [µM] | TGI (RXF-631 renal) [µM] | TGI (HOP-18 NSCLC) [µM] | TGI (DMS 273 small cell lung) [µM] | TGI (MDA-N) | further results
21 | CCCCCCC[CH2][Sn]1([CH2]CCCCCCC)[O]C(=O)c2cccnc2[O]1 | > 100 | > 100 | > 100 | > 100 | > 100 | > 100 |  | > 100 |  | GI50 (DMS 273 small cell lung): > 100 µM; GI50 (XF 498 CNS): 42.3 µM; GI50 (DMS 114 small cell lung): > 100 µM; GI50 (DLD-1 colon): > 100 µM; GI50 (KM20L2 colon): > 100 µM; GI50 (SNB-78 CNS): > 100 µM; GI50 (RXF-631 renal): > 100 µM
22 | CN(C)C(=S)SCC(=O)Nc1ccccc1 |  |  |  |  |  |  |  |  | > 100 µM | 
23 | O=C(Nc1nc2c(ncn2C2OC(CO)C(O)C2O)c(=O)[nH]1)c1ccccc1 (centres undefined) |  | > 100 | > 100 | > 100 | > 100 | > 100 | > 100 | > 100 |  | 
24 | CCSc1c2ccccc2c(-c2nc(F)nc(F)n2)n1CCc1ccccc1 | > 100 |  | > 100 | > 100 | > 100 | > 100 |  | > 100 |  | 
25 | COc1cc(CCc2ccc(N)cc2)cc(OC)c1OC | 83.8 | > 100 | > 100 | 85 | > 100 | > 100 | > 100 | > 100 |  | 
26 | Cn1nc(-c2ccccc2)c2c(/C=C/c3ccccc3)onc2c1=O | > 100 | > 100 | > 100 | > 100 | 72.4 | > 100 | > 100 |  |  | 
27 | CC(SC(=O)Nc1ccc(N=Nc2ccccc2)cc1)C(=O)O (centres undefined) | > 100 |  | > 100 | > 100 |  |  |  | > 100 |  | 
28 | COC(=O)C=Cc1ccc2nncnc2c1 (mixture of isomers) |  |  |  |  |  |  |  |  | 46.1 µM | 
29 | COC(=O)CSSCc1ccc([N+](=O)[O-])cc1 |  |  |  |  |  |  |  |  | 34.7 µM | 
30 | O=S(=O)(c1cnccc1N1CCN(CCO)CC1)N1CCCC1 |  |  |  |  |  |  |  |  | > 100 µM | 
31 | Brc1ccc2ns[s+]c2c1 | > 100 |  | > 100 | > 31.6 | > 100 | > 100 | > 100 | > 100 |  | 
32 | CN(C)CCNC(=O)c1cccc2c1Oc1c(cccc1[N+](=O)[O-])O2 |  |  |  |  |  |  |  |  | 12.6 µM | 
33 | N#C/C(=C/NC(=S)c1ccncc1)C(N)=O |  |  |  |  |  |  |  |  | > 100 µM | 
34 | Cc1ccc(NC(=O)C(=O)CC(=O)c2sc(Nc3c(C)cccc3C)nc2C)cc1C |  |  |  |  |  |  |  |  | > 100 µM | 
35 | CC(=O)O[C@H]1CC[C@@]2(C)C(=CC[C@@H]3C2CC[C@]2(C)Nc4nc5ccccc5cc4CC32)C1 (some centres undefined) | 18 | 15.6 | 3.66 | 21.1 | 18.5 |  | 13.5 | 13.8 |  | 
36 | O=c1[nH]cnc2c1nnn2CCCCCCCCCCCCn1nnc2c(=O)[nH]cnc21 | 39.4 | > 100 | > 100 | 48 |  |  | > 100 | > 100 | > 100 µM | 
37 | Cc1ccc(S(=O)(=O)NC(CN)C(=O)O)cc1 (centres undefined) |  |  |  |  |  |  |  |  | > 100 µM | 
38 | Nc1c(Cl)ncnc1NCCCNc1ncnc(Cl)c1N | > 100 | > 100 | > 100 | > 100 | > 100 |  | > 100 | > 100 |  | 
39 | NC(=O)NC1C(C(N)=O)N(Cc2ccccc2)C(=O)N1Cc1ccccc1 (centres undefined) | > 100 | > 100 | > 100 | > 100 | > 100 | > 100 | > 100 | > 100 |  | 
40 | C=C1C(=O)OC2/C=C(/C)C(OC(C)=O)C/C=C(\C)C(OC(=O)C3(C)OC3C)C(O)C12 (centres undefined) |  |  |  |  |  |  |  |  | > 100 µM | 

Reference: PubChem BioAssay (NCI)
